According to ChEMBL document CHEMBL3137667, “[Drug-induced liver injury; fourteenth updated edition of the bibliographic database of liver injuries and related drugs]” (Gastroenterol Clin Biol, 2004):

Columns and labels:
[1] = human, serum
[2] = human
[3] = human; remark: listed apart in the source
[4] = human; remark: listed apart in the source
[5] = human; remark: listed apart in the source
[6] = Highest frequency of moderate liver toxicity observed during clinical trials, expressed as a percentage. [column '% BIOL' in source]; details: human
[7] = human, serum, 4383 h
[8] = human; remark: listed apart in the source
[9] = human; remark: listed apart in the source
[10] = human; remark: listed apart in the source
[11] = human; remark: listed apart in the source
[12] = human, serum; remark: listed apart in the source
[13] = Highest frequency of acute liver toxicity observed during clinical trials, expressed as a percentage. [column '% AIGUE' in source]; details: human
[14] = human; remark: listed apart in the source
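Wherever Hepatotoxicity (association with vascular disease) is given: count of indexed literature references reporting vascular liver injury in humans, e.g. peliosis hepatitis, hepatic veno-occlusive disease or Budd-Chiari syndrome.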
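Wherever Hepatotoxicity (benign tumour) is given: value is a count of indexed literature references citing a benign tumour confirmed by histopathology.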
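Wherever Hepatotoxicity (choleostasis) is given: human cholestatic liver injury, shown by histopathology or by peak ALT or AST elevation over alkaline phosphatase ratio below 2, value counts indexed literature reports.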
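Wherever Hepatotoxicity (chronic liver disease) is given: chronic liver injury confirmed by histopathology or persistently raised serum aminotransferase activity beyond 6 months, value given as the count of indexed literature references.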
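Wherever Hepatotoxicity (cirrhosis) is given: value is a count of indexed literature references reporting cirrhosis confirmed by histopathology.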
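Wherever Hepatotoxicity (cytolytic) is given: human cytolytic liver injury, shown by histopathology or by a ratio above 5 of peak ALT or AST elevation to alkaline phosphatase elevation, value counts indexed references.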
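Wherever Hepatotoxicity (granulomatous hepatitis) is given: value is a count of indexed literature references reporting granulomatous liver disease confirmed by histopathology.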
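Wherever Hepatotoxicity (malignant tumour) is given: malignant tumour confirmed by histopathology, value gives the count of indexed literature references reporting it.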
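Wherever Hepatotoxicity (severe hepatitis) is given: human clinical data: severe hepatitis, meaning potentially life-threatening liver failure or clinically observed cases, the value counts how many indexed literature references report it.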
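Wherever Hepatotoxicity (steatosis) is given: steatosis confirmed by histopathology, value is the count of indexed references.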

| Compound | Hepatotoxicity (moderate) [1] | Hepatotoxicity (cirrhosis) [2] | Hepatotoxicity (granulomatous hepatitis) [3] | Hepatotoxicity (benign tumour) [4] | Hepatotoxicity (severe hepatitis) [5] | Hepatotoxicity (moderate) [6] | Hepatotoxicity (chronic liver disease) [7] | Hepatotoxicity (cytolytic) [8] | Hepatotoxicity (choleostasis) [9] | Hepatotoxicity (association with vascular disease) [10] | Hepatotoxicity (steatosis) [11] | Hepatotoxicity (acute) [12] | Hepatotoxicity (acute) [13] | Hepatotoxicity (malignant tumour) [14] | Hepatotoxicity (severe hepatitis) ([5]; Liver) | Hepatotoxicity (moderate) ([6]; Liver) | Hepatotoxicity (acute) ([13]; Liver) |
| --- | --- | --- | --- | --- | --- | --- | --- | --- | --- | --- | --- | --- | --- | --- | --- | --- | --- |
| CO/N=C(\C(=O)N[C@@H]1C(=O)N2C(C(=O)OCOC(=O)C(C)(C)C)=C(Cn3nnc(C)n3)CS[C@H]12)c1csc(N)n1 | 9 | 0 | 0 | 0 | 0 | 3.3% | 0 | 0 | 0 | 0 | 0 | 0 | 0% | 0 | – | – | – |
| NCC1CC(=O)N(Cc2ccccc2)C1 (centres undefined) [NEBRACETAM] | 1 | 0 | 0 | 0 | 0 | 11.1% | 0 | 0 | 0 | 0 | 0 | 0 | 0% | 0 | – | – | – |
| C[C@H](CSC(=O)c1ccccc1)C(=O)N1C[C@@H](Sc2ccccc2)C[C@H]1C(=O)O [ZOFENOPRIL] | 1 | 0 | 0 | 0 | 0 | 5.3% | 0 | 0 | 0 | 0 | 0 | 0 | 0% | 0 | – | – | – |
| CC(C)C[C@H](NC(=O)[C@@H](O)[C@H](N)Cc1ccccc1)C(=O)O [UBENIMEX] | 1 | 0 | 0 | 0 | 0 | 2.4% | 0 | 0 | 0 | 0 | 0 | 0 | 0% | 0 | – | – | – |
| O=C(O)Cc1ccccc1Oc1ccc(Cl)cc1Cl [FENCLOFENAC] | 1 | 0 | 0 | 0 | 0 | 1% | 0 | 0 | 0 | 0 | 0 | 0 | 0% | 0 | – | – | – |
| CN1CCC[C@@H]1CCO[C@](C)(c1ccccc1)c1ccc(Cl)cc1 [CLEMASTINE] | 1 | 0 | 0 | 0 | 0 | 0.7% | 0 | 0 | 0 | 0 | 0 | 0 | 0% | 0 | – | – | – |
| Cc1ccc2c(-c3ccccc3)nc(=O)n(C(C)C)c2c1 [PROQUAZONE] | 1 | 0 | 0 | 0 | 0 | 1.8% | 0 | 0 | 0 | 0 | 0 | 0 | 0% | 0 | – | – | – |
| C#C[C@]1(O)CC[C@H]2[C@@H]3CCC4=CC(=O)CCC4=C3C=C[C@@]21CC [GESTRINONE] | 1 | 0 | 0 | 0 | 0 | 0.8% | 0 | 0 | 0 | 0 | 0 | 0 | 0% | 0 | – | – | – |
| COC(=O)C1=C(C)NC(C)=C(C(=O)OCC(C)C)C1c1ccccc1[N+](=O)[O-] (centres undefined) [NISOLDIPINE] | 1 | 0 | 0 | 0 | 0 | 12.5% | 0 | 0 | 0 | 0 | 0 | 0 | 0% | 0 | – | – | – |
| NS(=O)(=O)c1cc(C2(O)NC(=O)c3ccccc32)ccc1Cl (centres undefined) [CHLORTHALIDONE] | 0 | 0 | 0 | 0 | 0 | 0% | 0 | 0 | 0 | 0 | 0 | 2 | 0% | 0 | – | – | – |
| CO/N=C(\C(=O)N[C@@H]1C(=O)N2C(C(=O)[O-])=C(C[N+]3(C)CCCC3)CS[C@H]12)c1csc(N)n1 | 52 | 0 | 0 | 0 | – | – | 0 | 0 | 0 | 0 | 0 | 0 | – | 0 | 0 | 37.5% | 0% |
| CC(=O)NCCCCCCNC(C)=O [HEXAMETHYLENEBISACETAMIDE] | 0 | 0 | 0 | 0 | 0 | 0% | 0 | 1 | 0 | 0 | 0 | 1 | 0% | 0 | – | – | – |
| NC(=O)OC[C@@H]1[C@H](NC(=O)/C(=N\OCC(=O)O)c2csc(N)n2)C(=O)N1S(=O)(=O)O [CARUMONAM] | 24 | 0 | 0 | 0 | 0 | 22% | 0 | 0 | 0 | 0 | 0 | 0 | 0% | 0 | – | – | – |
| O=C(CCCN1CCN(c2ccc(F)cc2)CC1)NC1c2ccccc2CSc2ccccc21 (centres undefined) [MONATEPIL] | 1 | 0 | 0 | 0 | 0 | 4.5% | 0 | 0 | 0 | 0 | 0 | 0 | 0% | 0 | – | – | – |
| NCCNC(=O)c1ccc(Cl)cn1 [LAZABEMIDE] | 1 | 0 | 0 | 0 | 0 | 0.3% | 0 | 0 | 0 | 0 | 0 | 0 | 0% | 0 | – | – | – |
| CO/N=C(\C(=O)N[C@@H]1C(=O)N2C(C(=O)O)=C(CSc3nc(C)c(CC(=O)O)s3)CS[C@H]12)c1csc(N)n1 [CEFODIZIME] | 51 | 0 | 0 | 0 | 0 | 44.4% | 0 | 0 | 0 | 0 | 0 | 0 | 0% | 0 | – | – | – |
